Drawing on BindingDB's records for doi:10.1016/0196-9781(94)90118-x (Tulane University, 1994), this text covers Ki for seven compounds.

What is called Ki is the dissociation constant of the complex between target and ligand, obtained from inhibition or displacement. Lower therefore signals a stronger hold on the target.

Positions of bridges follow the written chain, without caps; N, C: chain ends. Non-standard residues stand in square brackets, D forms with d. Residues, ends and D or L forms follow the SMILES beside them. ξ: configuration not given here. 2Nal = N[C@@H](Cc1ccc2ccccc2c1)C(=O)O; d2Nal = N[C@H](Cc1ccc2ccccc2c1)C(=O)O; ξPhg = NC(C(=O)O)c1ccccc1; Abu = CC[C@H](N)C(=O)O

Experiment [1] addresses T1, Somatostatin receptor type 5 (Rattus norvegicus, UniProt P30938).
T1 sequence (P30938 whole entry): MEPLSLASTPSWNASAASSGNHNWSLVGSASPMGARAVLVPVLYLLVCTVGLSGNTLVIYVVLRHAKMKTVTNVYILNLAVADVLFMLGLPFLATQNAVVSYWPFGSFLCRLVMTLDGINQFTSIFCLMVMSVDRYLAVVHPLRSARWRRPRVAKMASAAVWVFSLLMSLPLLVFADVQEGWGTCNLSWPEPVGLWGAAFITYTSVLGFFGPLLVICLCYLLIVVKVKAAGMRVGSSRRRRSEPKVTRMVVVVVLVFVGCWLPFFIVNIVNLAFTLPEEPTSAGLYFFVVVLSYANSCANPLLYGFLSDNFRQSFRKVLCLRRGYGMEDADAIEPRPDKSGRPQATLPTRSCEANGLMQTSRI

Experiment [2] addresses Somatostatin receptor type 3 (Rattus norvegicus, UniProt P30936).
In experiment [3] the target is Somatostatin receptor type 2 (Rattus norvegicus, UniProt P30680).
The target in experiment [4] is Somatostatin receptor type 1 (Rattus norvegicus, UniProt P28646).
The target in experiment [5] is Somatostatin receptor type 4 (Rattus norvegicus, UniProt P30937).
Chain of Somatostatin receptor type 4 (P30937 whole entry): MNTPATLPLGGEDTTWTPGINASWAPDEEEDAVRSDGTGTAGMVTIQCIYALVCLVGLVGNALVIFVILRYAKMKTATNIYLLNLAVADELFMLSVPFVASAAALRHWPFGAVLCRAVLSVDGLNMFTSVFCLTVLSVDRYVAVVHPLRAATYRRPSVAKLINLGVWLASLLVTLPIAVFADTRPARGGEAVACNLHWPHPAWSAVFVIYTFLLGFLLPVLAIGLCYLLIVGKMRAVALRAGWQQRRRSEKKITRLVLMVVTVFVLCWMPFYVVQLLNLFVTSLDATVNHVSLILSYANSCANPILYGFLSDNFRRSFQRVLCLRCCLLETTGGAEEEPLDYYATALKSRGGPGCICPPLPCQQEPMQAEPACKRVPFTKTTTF

Chain of Somatostatin receptor type 1 (P28646 whole entry): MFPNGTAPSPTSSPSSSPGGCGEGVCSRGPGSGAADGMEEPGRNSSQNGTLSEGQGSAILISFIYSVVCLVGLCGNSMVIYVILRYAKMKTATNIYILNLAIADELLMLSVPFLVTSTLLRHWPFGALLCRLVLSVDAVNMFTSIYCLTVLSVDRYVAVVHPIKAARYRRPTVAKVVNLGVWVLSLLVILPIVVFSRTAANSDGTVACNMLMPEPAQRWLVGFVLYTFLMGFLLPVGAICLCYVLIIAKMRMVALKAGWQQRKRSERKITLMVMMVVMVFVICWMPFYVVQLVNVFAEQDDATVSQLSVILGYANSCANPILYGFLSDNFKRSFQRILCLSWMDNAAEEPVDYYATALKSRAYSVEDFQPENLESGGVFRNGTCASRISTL
Chain of Somatostatin receptor type 2 (P30680 whole entry): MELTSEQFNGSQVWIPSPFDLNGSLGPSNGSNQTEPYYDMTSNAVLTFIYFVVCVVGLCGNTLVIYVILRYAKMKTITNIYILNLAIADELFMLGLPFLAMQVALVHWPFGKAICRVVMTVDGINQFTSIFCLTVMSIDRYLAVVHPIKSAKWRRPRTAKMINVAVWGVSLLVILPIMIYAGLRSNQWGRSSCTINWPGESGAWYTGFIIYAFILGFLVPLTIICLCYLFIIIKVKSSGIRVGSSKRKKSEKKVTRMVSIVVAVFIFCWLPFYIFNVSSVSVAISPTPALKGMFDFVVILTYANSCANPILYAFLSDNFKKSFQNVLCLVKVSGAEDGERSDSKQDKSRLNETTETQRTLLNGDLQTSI
Chain of Somatostatin receptor type 3 (P30936 whole entry): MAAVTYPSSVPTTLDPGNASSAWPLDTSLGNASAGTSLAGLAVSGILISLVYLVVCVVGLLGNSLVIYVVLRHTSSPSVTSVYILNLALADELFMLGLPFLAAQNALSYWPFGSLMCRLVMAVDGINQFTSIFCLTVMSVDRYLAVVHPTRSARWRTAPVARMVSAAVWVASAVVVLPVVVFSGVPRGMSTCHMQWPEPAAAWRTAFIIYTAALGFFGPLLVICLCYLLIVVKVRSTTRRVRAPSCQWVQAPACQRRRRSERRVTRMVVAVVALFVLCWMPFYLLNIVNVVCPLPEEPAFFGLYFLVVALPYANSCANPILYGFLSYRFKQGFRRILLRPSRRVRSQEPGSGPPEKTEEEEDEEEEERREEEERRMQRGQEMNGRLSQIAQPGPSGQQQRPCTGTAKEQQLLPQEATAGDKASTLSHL

`C[C@@H](O)[C@H](NC(=O)[C@H](Cc1ccccc1)NC(=O)[C@@H](NC(=O)[C@H](CCCCN)NC(=O)[C@@H](Cc1c[nH]c2ccccc12)NC(=O)[C@H](Cc1ccccc1)NC(=O)[C@H](Cc1ccccc1)NC(=O)[C@H](N)Cc1ccccc1)[C@@H](C)O)C(N)=O` [CAS_133073-82-2] (H-[dF]FF[dW]KTFT-NH2): the Ki in experiment [1] amounted to 18 nM; in experiment [2], 0.42 nM; in experiment [3], 32 nM.
Consider `CC(C)[C@H](NC(=O)[C@H](CCCCN)NC(=O)[C@@H](Cc1c[nH]c2ccccc12)NC(=O)[C@H](Cc1ccc(O)cc1)NC(=O)[C@H](Cc1ccccc1)NC(=O)[C@H](N)Cc1ccccc1)C(=O)N[C@@H](Cc1ccccc1)C(=O)N[C@H](Cc1ccc2ccccc2c1)C(N)=O` [CAS_150155-61-6] (H-[dF]FY[dW]KVF[d2Nal]-NH2), for which the Ki in experiment [4] was > 10000 nM; in experiment [1] it was 158 nM; in experiment [5] it was 43 nM; in experiment [2] it was 0.02 nM; in experiment [3] it was 1000 nM.
For the compound `CC(C)[C@@H]1NC(=O)[C@H](CCCCN)NC(=O)[C@@H](Cc2c[nH]c3ccccc23)NC(=O)[C@H](Cc2ccc(O)cc2)NC(=O)[C@@H](NC(=O)[C@H](N)Cc2ccc3ccccc3c2)CSSC[C@@H](C(=O)N[C@H](C(N)=O)[C@@H](C)O)NC1=O` [D-Nal-Cys-Tyr-D-Trp-Lys-Val-Cys-Thr-NH2], the inhibitory constant (Ki) in experiment [4] is > 10000 nM; in experiment [2] it was 4.9 nM; in experiment [3], 1.6 nM.
Regarding `CC(C)[C@H](NC(=O)[C@H](CCCCN)NC(=O)[C@H](Cc1c[nH]c2ccccc12)NC(=O)[C@H](Cc1ccc(O)cc1)NC(=O)[C@@H](N)CS)C(=O)N[C@@H](CS)C(=O)N[C@H](C(N)=O)[C@@H](C)O` [D-Nal-Cys-Tyr-D-Trp-Lys-Val-Cys-Thr-NH2] (H-CYWKVCT-NH2), affinity in experiment [1] was put at a Ki of 1000 nM.
Turning to `CC[C@@H]1NC(=O)[C@H](CCCCN)NC(=O)[C@@H](Cc2c[nH]c3ccccc23)NC(=O)[C@H](Cc2ccc(O)cc2)NC(=O)[C@@H](NC(=O)[C@H](N)Cc2ccccc2)CSSC[C@@H](C(=O)N[C@@H](Cc2ccc3ccccc3c2)C(N)=O)NC1=O` [D-Phe-Cys-Tyr-D-Trp-Lys-Abu-Cys-Nal-NH] (H-[dF]CY[dW]K[Abu]C[2Nal]-NH2; disulfide 2-7), the values for the Ki in experiment [4], in experiment [2] and in experiment [3] were > 10000 nM, 11 nM and 0.01 nM, respectively.
As to `CC(C)[C@H](NC(=O)[C@H](CCCCN)NC(=O)[C@@H](Cc1c[nH]c2ccccc12)NC(=O)[C@H](Cc1ccc(O)cc1)NC(=O)[C@H](Cc1ccccc1)NC(=O)[C@H](N)Cc1ccccc1)C(=O)N[C@@H](Cc1ccccc1)C(=O)N[C@H](C(N)=O)[C@@H](C)O` [D-Phe-Phe-Tyr-D-Trp-Lys-Val-Phe-Thr-NH2] (H-[dF]FY[dW]KVFT-NH2), the Ki in experiment [4] was > 10000 nM; in experiment [5], 1.2 nM; in experiment [2] it was 0.03 nM; in experiment [3], 46 nM.
In experiment [1], `CC(C)[C@H](NC(=O)[C@H](CCCCN)NC(=O)[C@H](Cc1c[nH]c2ccccc12)NC(=O)[C@H](Cc1ccc(O)cc1)NC(=O)[C@H](Cc1ccccc1)NC(=O)C(N)c1ccccc1)C(=O)N[C@@H](Cc1ccccc1)C(=O)N[C@H](C(N)=O)[C@@H](C)O` (stereo partly drawn) [D-Phe-Phe-Tyr-D-Trp-Lys-Val-Phe-Thr-NH2] (H-[ξPhg]FYWKVFT-NH2) registered a Ki of 77 nM.
